Data published in US11020399B2, “Intermediates useful in the synthesis of compounds as modulators of protein kinases” (Rhizen Pharmaceuticals SA, priority 2011, dated 2021).
Blank lines part the entries; values can stand above or below the compound they belong to.

Experiments:
Format in all cases: biochemical
PI3kγ = PI3kγ (Homo sapiens, UniProt P48736); assay: Fluorescent (HTRF) determination of PI3 kinase enzyme activity, PI3Kγ; details: for inhibition at 0.1 µM / % inhibition (PI3kγ) 100 nM: 100 nM (Examples 60-137); for inhibition at 0.3 µM: 300 nM (Examples 1-59)
Chain of PI3kγ (P48736 whole entry): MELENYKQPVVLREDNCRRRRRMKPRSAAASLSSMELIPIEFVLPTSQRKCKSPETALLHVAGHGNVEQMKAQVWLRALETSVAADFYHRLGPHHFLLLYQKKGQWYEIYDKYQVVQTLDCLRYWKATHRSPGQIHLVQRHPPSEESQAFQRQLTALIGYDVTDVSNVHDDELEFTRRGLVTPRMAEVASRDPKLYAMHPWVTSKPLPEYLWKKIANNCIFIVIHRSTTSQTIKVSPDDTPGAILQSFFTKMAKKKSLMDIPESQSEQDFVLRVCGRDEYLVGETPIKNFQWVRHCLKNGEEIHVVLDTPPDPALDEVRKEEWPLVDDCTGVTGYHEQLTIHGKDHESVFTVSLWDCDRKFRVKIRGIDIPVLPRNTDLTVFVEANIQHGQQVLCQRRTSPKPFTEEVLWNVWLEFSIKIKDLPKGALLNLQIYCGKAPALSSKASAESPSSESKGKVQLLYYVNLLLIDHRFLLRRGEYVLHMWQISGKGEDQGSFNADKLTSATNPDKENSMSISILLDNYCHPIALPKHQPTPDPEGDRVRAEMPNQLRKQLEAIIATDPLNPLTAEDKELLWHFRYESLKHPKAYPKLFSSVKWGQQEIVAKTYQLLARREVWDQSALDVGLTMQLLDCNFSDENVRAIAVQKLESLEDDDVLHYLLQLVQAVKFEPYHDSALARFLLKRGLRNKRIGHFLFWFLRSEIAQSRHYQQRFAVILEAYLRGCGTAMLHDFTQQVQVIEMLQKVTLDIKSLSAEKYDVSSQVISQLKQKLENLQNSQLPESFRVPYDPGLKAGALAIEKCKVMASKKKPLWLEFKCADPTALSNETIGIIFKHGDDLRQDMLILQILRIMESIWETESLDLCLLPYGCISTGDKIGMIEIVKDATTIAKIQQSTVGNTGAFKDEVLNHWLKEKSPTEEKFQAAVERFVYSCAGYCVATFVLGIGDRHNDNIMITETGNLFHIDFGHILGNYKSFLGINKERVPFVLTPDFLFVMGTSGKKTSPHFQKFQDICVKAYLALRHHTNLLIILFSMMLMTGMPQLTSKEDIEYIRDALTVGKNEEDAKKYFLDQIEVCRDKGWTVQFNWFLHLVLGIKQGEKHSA
Description: (§1) Assay 1: Fluorescent Determination of PI3Kinase Kinase Enzyme Activity
(§2) Phosphoinositide 3 kinases (PI3K) belong to a class of lipid kinases that play a critical role in the regulation of several key cellular processes. The PI3K are capable of phosphorylating the 3-hydroxy position of phosphoinositols thereby generating second messengers involved in downstream signalling events. The homogenous time resolved fluorescence (HTRF) assay allows detection of 3,4,5-triphosphate (PIP3) formed as a result of phosphorylation of phosphotidylinositol 4,5-biphosphate (PIP2) by PI3K isoforms such as α, β, γ or δ. PI3K isoform activity for a, p, y or 8 was determined using a PI3K human HTRF™ Assay Kit (Millipore, Billerica, Mass.) with modifications. All incubations were carried out at room temperature. Briefly, 0.5 μl of 40× inhibitor (in 100% DMSO) or 100% DMSO were added to each well of a 384-well black plate (Greiner Bio-One, Monroe, N.C.) containing 14.5 μl IX reaction buffer /PIP2 (10 mM MgCl2, 5 mM DTT, 1.38 μM PIP2) mix with or without enzyme and incubated for 10 min. After the initial incubation, 5 μl/well of 400 μM ATP was added and incubated for an additional 30 minutes. Reaction was terminated by adding 5 μl/well stop solution (Millipore, Billerica, Mass.). Five microliters of detection mix (Millipore, Billerica, Mass.) were then added to each well and was incubated for 6-18 h in the dark. HRTF ratio was measured on a microplate reader (BMG Labtech., Germany) at an excitation wavelength of 337 nm and emission wavelengths of 665 and 620 nm with an integration time of 400 μsec.
(§3) Data were analyzed using Graphpad Prism (Graphpad software; San Diego Calif.) for IC50 determination. Examples 1-59 were tested at 1 uM for Pi3kα & Pi3k β and at 0.3 uM for γ and δ. Examples 60-137 were tested at 1 uM for Pi3kα & Pi3k β and at 0.1 uM for γ and δ. Percent inhibition was calculated based on the values for the blank and enzyme controls. The results are as provided in Table 2 (wherein D=0 to 25%; C=>25 to 50%; B=>50 to 75%; A=>75 to 100%; +++++=≤50 nM; ++++=>50 to ≤100 nM; +++=>100 to ≤300 nM; ++=>300 to ≤500 nM; +=>500 nM)

PI3kδ = PI3kδ (Homo sapiens, UniProt O00329); assay: Fluorescent (HTRF) determination of PI3 kinase enzyme activity, PI3Kδ; details: for inhibition at 0.1 µM / % inhibition (PI3kδ) 100 nM: 100 nM (Examples 60-137); for inhibition at 0.3 µM: 300 nM (Examples 1-59); for % inhibition (PI3kδ) 100 nM: 0.1 µM
Chain of PI3kδ (O00329 whole entry): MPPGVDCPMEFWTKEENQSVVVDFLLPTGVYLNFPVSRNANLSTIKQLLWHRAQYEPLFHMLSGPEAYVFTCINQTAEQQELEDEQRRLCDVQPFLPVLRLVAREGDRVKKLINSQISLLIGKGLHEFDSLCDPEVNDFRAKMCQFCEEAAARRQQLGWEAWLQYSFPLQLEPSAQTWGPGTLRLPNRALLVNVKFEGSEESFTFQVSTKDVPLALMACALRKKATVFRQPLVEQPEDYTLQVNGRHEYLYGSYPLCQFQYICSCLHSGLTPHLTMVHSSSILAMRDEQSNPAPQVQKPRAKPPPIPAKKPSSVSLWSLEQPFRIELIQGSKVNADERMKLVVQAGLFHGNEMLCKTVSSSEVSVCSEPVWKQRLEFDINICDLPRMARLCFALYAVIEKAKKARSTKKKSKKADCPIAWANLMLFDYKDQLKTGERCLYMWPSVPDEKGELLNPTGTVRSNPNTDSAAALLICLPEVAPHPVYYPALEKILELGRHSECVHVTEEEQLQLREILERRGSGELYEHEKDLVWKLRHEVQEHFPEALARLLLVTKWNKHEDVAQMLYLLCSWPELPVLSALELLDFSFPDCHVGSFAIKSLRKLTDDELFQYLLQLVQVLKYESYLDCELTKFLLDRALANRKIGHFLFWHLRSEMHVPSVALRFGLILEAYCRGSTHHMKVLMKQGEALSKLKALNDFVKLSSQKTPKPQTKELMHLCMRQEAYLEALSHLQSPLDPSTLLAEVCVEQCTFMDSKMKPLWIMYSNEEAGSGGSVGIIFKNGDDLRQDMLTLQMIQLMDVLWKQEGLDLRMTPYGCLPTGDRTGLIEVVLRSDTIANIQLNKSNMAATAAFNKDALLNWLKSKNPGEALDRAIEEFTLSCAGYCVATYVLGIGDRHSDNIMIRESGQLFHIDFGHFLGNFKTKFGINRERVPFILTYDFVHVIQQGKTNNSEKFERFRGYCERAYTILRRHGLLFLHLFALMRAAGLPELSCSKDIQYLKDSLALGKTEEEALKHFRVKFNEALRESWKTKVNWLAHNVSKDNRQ
Chain of PI3kδ (P27986 whole entry partner): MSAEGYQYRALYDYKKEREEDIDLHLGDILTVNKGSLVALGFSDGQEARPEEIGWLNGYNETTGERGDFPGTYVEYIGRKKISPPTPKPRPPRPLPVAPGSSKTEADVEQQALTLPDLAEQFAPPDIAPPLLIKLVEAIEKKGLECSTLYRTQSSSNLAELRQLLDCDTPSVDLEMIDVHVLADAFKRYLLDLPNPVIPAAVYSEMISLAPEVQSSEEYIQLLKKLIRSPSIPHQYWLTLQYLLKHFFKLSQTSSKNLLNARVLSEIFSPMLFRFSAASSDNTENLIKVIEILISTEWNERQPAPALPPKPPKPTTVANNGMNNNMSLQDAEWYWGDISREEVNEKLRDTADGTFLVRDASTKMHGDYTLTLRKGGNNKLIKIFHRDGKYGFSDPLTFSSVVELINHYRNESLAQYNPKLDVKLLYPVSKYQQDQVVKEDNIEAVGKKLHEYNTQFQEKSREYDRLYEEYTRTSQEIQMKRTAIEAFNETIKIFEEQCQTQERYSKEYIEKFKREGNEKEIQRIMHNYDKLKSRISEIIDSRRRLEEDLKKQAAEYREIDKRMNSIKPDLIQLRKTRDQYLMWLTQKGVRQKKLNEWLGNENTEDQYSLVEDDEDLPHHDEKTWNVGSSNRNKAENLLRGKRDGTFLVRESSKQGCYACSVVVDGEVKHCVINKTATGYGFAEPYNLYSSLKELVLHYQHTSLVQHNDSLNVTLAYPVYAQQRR
Description: as §1, §2, §3

PI3kα = PI3kα (Homo sapiens, UniProt P42336); assay: Fluorescent (HTRF) determination of PI3 kinase enzyme activity, PI3Kα
Chain of PI3kα (P42336 whole entry): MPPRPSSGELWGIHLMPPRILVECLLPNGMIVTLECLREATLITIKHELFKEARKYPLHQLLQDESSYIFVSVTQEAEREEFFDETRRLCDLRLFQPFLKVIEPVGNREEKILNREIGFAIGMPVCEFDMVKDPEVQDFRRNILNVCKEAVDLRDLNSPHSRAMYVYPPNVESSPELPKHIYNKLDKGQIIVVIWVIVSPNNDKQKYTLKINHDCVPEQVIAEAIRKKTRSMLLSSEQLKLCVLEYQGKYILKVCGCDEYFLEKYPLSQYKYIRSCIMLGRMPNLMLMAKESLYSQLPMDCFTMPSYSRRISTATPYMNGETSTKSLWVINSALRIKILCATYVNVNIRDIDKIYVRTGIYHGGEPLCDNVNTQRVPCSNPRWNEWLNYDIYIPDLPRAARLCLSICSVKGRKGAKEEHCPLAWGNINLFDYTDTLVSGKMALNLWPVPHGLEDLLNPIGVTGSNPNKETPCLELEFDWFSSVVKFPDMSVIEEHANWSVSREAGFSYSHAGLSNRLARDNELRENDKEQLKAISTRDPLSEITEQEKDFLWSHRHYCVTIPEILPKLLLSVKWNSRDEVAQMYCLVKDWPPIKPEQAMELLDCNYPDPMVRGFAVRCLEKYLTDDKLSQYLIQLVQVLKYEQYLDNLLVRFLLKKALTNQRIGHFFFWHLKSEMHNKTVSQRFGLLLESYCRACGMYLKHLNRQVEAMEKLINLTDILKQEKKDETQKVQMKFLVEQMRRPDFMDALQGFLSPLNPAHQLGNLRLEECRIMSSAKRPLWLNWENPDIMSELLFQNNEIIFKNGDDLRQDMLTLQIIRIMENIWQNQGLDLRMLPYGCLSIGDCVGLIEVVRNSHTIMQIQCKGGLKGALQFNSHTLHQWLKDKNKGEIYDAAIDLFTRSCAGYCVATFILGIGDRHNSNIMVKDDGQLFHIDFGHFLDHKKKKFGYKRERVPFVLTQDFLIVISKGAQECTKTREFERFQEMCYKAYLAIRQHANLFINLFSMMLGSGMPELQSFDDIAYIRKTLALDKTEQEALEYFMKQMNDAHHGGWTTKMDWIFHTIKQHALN
Chain of PI3kα (P27986 whole entry partner): as the sequence (P27986 whole entry partner) above
Description: as §1, §2, §3

PI3kβ = PI3kβ (Homo sapiens, UniProt P42338); assay: Fluorescent (HTRF) determination of PI3 kinase enzyme activity, PI3Kβ
Chain of PI3kβ (P42338 whole entry): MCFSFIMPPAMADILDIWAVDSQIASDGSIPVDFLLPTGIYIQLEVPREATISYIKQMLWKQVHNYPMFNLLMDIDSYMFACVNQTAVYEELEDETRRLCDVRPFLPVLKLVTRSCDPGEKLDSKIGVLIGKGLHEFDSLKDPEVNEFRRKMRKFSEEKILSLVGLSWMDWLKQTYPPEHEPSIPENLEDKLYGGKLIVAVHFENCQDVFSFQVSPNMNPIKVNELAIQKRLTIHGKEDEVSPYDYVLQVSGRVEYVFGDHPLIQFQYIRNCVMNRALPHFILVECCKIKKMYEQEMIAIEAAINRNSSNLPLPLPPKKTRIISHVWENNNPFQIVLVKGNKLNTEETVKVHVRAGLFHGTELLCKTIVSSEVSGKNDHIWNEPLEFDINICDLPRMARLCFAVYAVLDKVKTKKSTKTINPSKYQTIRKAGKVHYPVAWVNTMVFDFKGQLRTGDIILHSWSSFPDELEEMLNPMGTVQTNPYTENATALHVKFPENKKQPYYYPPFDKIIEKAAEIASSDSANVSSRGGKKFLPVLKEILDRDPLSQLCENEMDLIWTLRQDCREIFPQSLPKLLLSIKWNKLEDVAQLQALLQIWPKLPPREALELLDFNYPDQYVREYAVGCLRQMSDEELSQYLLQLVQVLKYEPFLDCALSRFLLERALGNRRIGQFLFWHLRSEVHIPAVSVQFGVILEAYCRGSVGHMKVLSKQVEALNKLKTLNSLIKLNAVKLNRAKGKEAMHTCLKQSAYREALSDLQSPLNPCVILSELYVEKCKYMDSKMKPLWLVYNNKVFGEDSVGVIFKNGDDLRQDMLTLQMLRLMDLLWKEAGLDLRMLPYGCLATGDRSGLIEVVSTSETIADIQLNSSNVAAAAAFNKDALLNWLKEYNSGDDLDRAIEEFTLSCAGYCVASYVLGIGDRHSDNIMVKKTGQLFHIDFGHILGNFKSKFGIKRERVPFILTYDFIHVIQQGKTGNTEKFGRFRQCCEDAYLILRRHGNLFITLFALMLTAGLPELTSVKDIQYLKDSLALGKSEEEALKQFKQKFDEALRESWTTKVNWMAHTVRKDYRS
Chain of PI3kβ (P27986 whole entry partner): as the sequence (P27986 whole entry partner) above
Description: as §1, §2, §3

SMILES: CC(c1oc2cccc(F)c2c(=O)c1-c1ccccc1)n1nc(-c2ccc(N3CCOCC3)c(F)c2)c2c(N)ncnc21 (stereo not shown) [Example 92, 2-(1-(4-amino-3-(3-fluoro-4-morpholinophenyl)-1H-pyrazolo[3,4-d]pyrimidin-1-yl)ethyl)-5-fluoro-3-phenyl-4H-chromen-4-one]
inhibition at 0.1 µM (PI3kγ): 0 to 25%
inhibition at 0.1 µM (PI3kδ): 0 to 25%

SMILES: COc1cccc2oc(Cn3cnc4c(N)ncnc43)c(-c3cccc(F)c3)c(=O)c12 [Example 1]
inhibition at 1 µM (PI3kα; 1 uM): 25 to 50%
inhibition at 1 µM (PI3kβ): 25 to 50%
inhibition at 0.3 µM (PI3kδ): 50 to 75%

SMILES: CC(c1oc2cccc(F)c2c(=O)c1-c1cccc(F)c1)n1nc(-c2ccc(N3CCOCC3)c(F)c2)c2c(N)ncnc21 (stereo not shown) [Example 25, 2-(1-(4-amino-3-(3-fluoro-4-morpholinophenyl)-1H-pyrazolo[3,4-d]pyrimidin-1-yl)ethyl)-5-fluoro-3-(3-fluorophenyl)-4H-chromen-4-one]
inhibition at 1 µM (PI3kα; 1 uM): 0 to 25%
inhibition at 1 µM (PI3kβ): 25 to 50%
IC50 (PI3kγ): ≤ 50 nM
inhibition at 0.3 µM (PI3kγ): 75 to 100%

SMILES: CNc1ncnc2c1ncn2C(C)c1oc2cccc(F)c2c(=O)c1-c1cccc(F)c1 (stereo not shown) [Example 111, 5-fluoro-3-(3-fluorophenyl)-2-(1-(6-(methylamino)-9H-purin-9-yl)ethyl)-4H-chromen-4-one]
inhibition at 1 µM (PI3kβ): 0 to 25%
inhibition at 0.1 µM (PI3kγ): 25 to 50%
inhibition at 0.1 µM (PI3kδ): 25 to 50%

SMILES: CNc1ncnc2c1c(-c1ccc(N3CCOCC3)c(F)c1)nn2C(C)c1oc2cccc(F)c2c(=O)c1-c1cccc(F)c1 (stereo not shown) [Example 99, 5-fluoro-2-(1-(3-(3-fluoro-4-morpholinophenyl)-4-(methylamino)-1H-pyrazolo[3,4-d]pyrimidin-1-yl)ethyl)-3-(3-fluorophenyl)-4H-chromen-4-one]
inhibition at 0.1 µM (PI3kγ): 25 to 50%
inhibition at 0.1 µM (PI3kδ): 25 to 50%

SMILES: Cc1cc(-c2nn(C(C)c3oc4cccc(F)c4c(=O)c3-c3cccc(F)c3)c3ncnc(N)c23)ccc1OC(C)C (single isomer, unassigned; (+)) [Example 114, (+) 2-(1-(4-amino-3-(4-isopropoxy-3-methylphenyl)-1H-pyrazolo[3,4-d]pyrimidin-1-yl)ethyl)-5-fluoro-3-(3-fluorophenyl)-4H-chromen-4-one]
% inhibition (PI3kα) 1 uM (PI3kα; 1 uM): D (D=0 to 25%)
% inhibition (PI3kγ) 100 nM (PI3kγ; 0.1 µM): B (B=>50 to 75%)
% inhibition (PI3kδ) 100 nM (PI3kδ): B (B=>50 to 75%)

SMILES: CC(c1oc2cccc(F)c2c(=O)c1-c1ccc(F)cc1)n1cnc2c(N3CCN(C)CC3)ncnc21 (stereo not shown) [Example 109, 5-fluoro-3-(4-fluorophenyl)-2-(1-(6-(4-methylpiperazin-1-yl)-9H-purin-9-yl)ethyl)-4H-chromen-4-one]
inhibition at 0.1 µM (PI3kγ): 0 to 25%
inhibition at 0.1 µM (PI3kδ): 25 to 50%

SMILES: CC(c1oc2cccc(F)c2c(=O)c1-c1cccc(F)c1)n1nc(-c2ccc(OC3CCNCC3)c(F)c2)c2c(N)ncnc21 (stereo not shown) [Example 21, 2-(1-(4-amino-3-(3-fluoro-4-(piperidin-4-yloxy)phenyl)-1H-pyrazolo[3,4-d]pyrimidin-1-yl)ethyl)-5-fluoro-3-(3-fluorophenyl)-4H-chromen-4-one]
inhibition at 0.3 µM (PI3kγ): 0 to 25%
inhibition at 0.3 µM (PI3kδ): 25 to 50%

SMILES: CC(c1oc2cccc(F)c2c(=O)c1-c1ccc(F)cc1)n1nc(-c2ccc(OC(F)F)c(F)c2)c2c(N)ncnc21 (racemic) [Example 96, (S)/(R)-2-(1-(4-amino-3-(4-(difluoromethoxy)-3-fluorophenyl)-1H-pyrazolo[3,4-d]pyrimidin-1-yl)ethyl)-5-fluoro-3-(4-fluorophenyl)-4H-chromen-4-one]
inhibition at 0.1 µM (PI3kγ): 0 to 25%
inhibition at 0.1 µM (PI3kδ): 0 to 25%

SMILES: CC(C)Oc1ccc(-c2nn(C(C)c3oc4cccc(F)c4c(=O)c3-c3ccc(F)cc3)c3ncnc(N)c23)cc1F (single isomer, unassigned) [Example 95]
inhibition at 0.1 µM (PI3kγ): 0 to 25%
inhibition at 0.1 µM (PI3kδ): 25 to 50%

SMILES: CC(C)Oc1ccc(-c2nn(C(C)c3oc4cccc(F)c4c(=O)c3-c3cccc(F)c3)c3ncnc(N)c23)cc1Cl (stereo not shown) [Example 117, 2-(1-(4-amino-3-(3-chloro-4-isopropoxyphenyl)-1H-pyrazolo[3,4-d]pyrimidin-1-yl)ethyl)-5-fluoro-3-(3-fluorophenyl)-4H-chromen-4-one]
inhibition at 1 µM (PI3kα; 1 uM): 50 to 75%
inhibition at 0.1 µM (PI3kγ): 25 to 50%
inhibition at 0.1 µM (PI3kδ): 25 to 50%

SMILES: CC(C)c1nn(C(C)c2oc3cccc(F)c3c(=O)c2-c2cccc(F)c2)c2ncnc(N)c12 (stereo not shown) [Example 35, 2-(1-(4-amino-3-isopropyl-1H-pyrazolo[3,4-d]pyrimidin-1-yl)ethyl)-5-fluoro-3-(3-fluorophenyl)-4H-chromen-4-one]
inhibition at 0.3 µM (PI3kγ): 25 to 50%
inhibition at 0.3 µM (PI3kδ): 0 to 25%

SMILES: CC(c1oc2cccc(F)c2c(=O)c1-c1ccccc1)n1nc(-c2ccc(OC(F)F)c(F)c2)c2c(N)ncnc21 (single isomer, unassigned) [Example 103]
inhibition at 0.1 µM (PI3kγ): 25 to 50%
inhibition at 0.1 µM (PI3kδ): 0 to 25%

SMILES: CC(Nc1ncnc2[nH]cnc12)c1oc2cccc(F)c2c(=O)c1-c1cccc(F)c1 (stereo not shown) [Example 15, 2-(1-(9H-purin-6-ylamino)ethyl)-5-fluoro-3-(3-fluorophenyl)-4H-chromen-4-one]
inhibition at 0.3 µM (PI3kγ): 0 to 25%
inhibition at 0.3 µM (PI3kδ): 0 to 25%

SMILES: Nc1ncnc2c1c(-c1cc(O)cc(F)c1)nn2Cc1oc2cccc(F)c2c(=O)c1-c1cccc(F)c1 [Example 5, 2-((4-amino-3-(3-fluoro-5-hydroxyphenyl)-1H-pyrazolo[3,4-d]pyrimidin-1-yl)methyl)-5-fluoro-3-(3-fluorophenyl)-4H-chromen-4-one]
inhibition at 1 µM (PI3kα; 1 uM): 25 to 50%
IC50 (PI3kα; numeric values): > 10000 nM
IC50 (PI3kβ): 300 to 500 nM
inhibition at 1 µM (PI3kβ): 0 to 25%
inhibition at 0.3 µM (PI3kδ): 50 to 75%

The next lines start with the values.

inhibition at 1 µM (PI3kβ): 50 to 75%
inhibition at 0.1 µM (PI3kγ): 50 to 75%
inhibition at 0.1 µM (PI3kδ): 25 to 50%
SMILES: CCC(c1oc2cccc(F)c2c(=O)c1-c1cccc(F)c1)n1nc(-c2ccc(OC(C)C)c(F)c2)c2c(N)ncnc21 (stereo not shown) [Example 133, 2-(1-(4-amino-3-(3-fluoro-4-isopropoxyphenyl)-1H-pyrazolo[3,4-d]pyrimidin-1-yl)propyl)-5-fluoro-3-(3-fluorophenyl)-4H-chromen-4-one]

inhibition at 0.1 µM (PI3kγ): 25 to 50%
inhibition at 0.1 µM (PI3kδ): 0 to 25%
SMILES: CC(c1oc2cccc(F)c2c(=O)c1-c1cccc(F)c1)n1cnc2c(N3CCOCC3)ncnc21 (stereo not shown) [Example 119, 5-fluoro-3-(3-fluorophenyl)-2-(1-(6-morpholino-9H-purin-9-yl)ethyl)-4H-chromen-4-one]

inhibition at 1 µM (PI3kα; 1 uM): 0 to 25%
inhibition at 1 µM (PI3kβ): 0 to 25%
inhibition at 0.3 µM (PI3kδ): 50 to 75%
SMILES: COc1cccc2oc(Cn3nc(-c4ccc(OC(C)C)c(F)c4)c4c(N)ncnc43)c(-c3cccc(F)c3)c(=O)c12 [Example 2, 2-((4-Amino-3-(3-fluoro-4-isopropoxyphenyl)-1H-pyrazolo[3,4-d]pyrimidin-1-yl)methyl)-3-(3-fluorophenyl)-5-methoxy-4H-chromen-4-one]

inhibition at 0.1 µM (PI3kγ): 25 to 50%
inhibition at 0.1 µM (PI3kδ): 0 to 25%
SMILES: CC(c1oc2cccc(F)c2c(=O)c1-c1cccc(F)c1)n1cnc2c(N)nc(F)nc21 (stereo not shown) [Example 106, 2-(1-(6-amino-2-fluoro-9H-purin-9-yl)ethyl)-5-fluoro-3-(3-fluorophenyl)-4H-chromen-4-one]

inhibition at 0.1 µM (PI3kγ): 25 to 50%
% inhibition (PI3kδ) 100 nM (PI3kδ): D (D=0 to 25%)
SMILES: CNc1ncnc2c1c(-c1ccc(OC(C)C)c(F)c1)nn2C(C)c1oc2cccc(F)c2c(=O)c1-c1cccc(F)c1 (single isomer, unassigned; (+)) [Example 104, (+)-5-fluoro-2-(1-(3-(3-fluoro-4-isopropoxyphenyl)-4-(methylamino)-1H-pyrazolo[3,4-d]pyrimidin-1-yl)ethyl)-3-(3-fluorophenyl)-4H-chromen-4-one]

inhibition at 0.1 µM (PI3kγ): 0 to 25%
inhibition at 0.1 µM (PI3kδ): 25 to 50%
SMILES: CC(c1oc2cccc(F)c2c(=O)c1-c1ccc(F)cc1)n1nc(-c2ccc(N3CCOCC3)c(F)c2)c2c(N)ncnc21 (stereo not shown) [Example 93, 2-(1-(4-amino-3-(3-fluoro-4-morpholinophenyl)-1H-pyrazolo[3,4-d]pyrimidin-1-yl)ethyl)-5-fluoro-3-(4-fluorophenyl)-4H-chromen-4-one]

% inhibition (PI3kγ) 100 nM (PI3kγ): C (C=>25 to 50%)
% inhibition (PI3kδ) 100 nM (PI3kδ): D (D=0 to 25%)
SMILES: CNc1ncnc2c1c(-c1ccc(OC(C)C)c(F)c1)nn2C(C)c1oc2cccc(F)c2c(=O)c1-c1cccc(F)c1 (single isomer, unassigned; (-)) [Example 105, (−)-5-fluoro-2-(1-(3-(3-fluoro-4-isopropoxyphenyl)-4-(methylamino)-1H-pyrazolo[3,4-d]pyrimidin-1-yl)ethyl)-3-(3-fluorophenyl)-4H-chromen-4-one]
